Test results published in article PMC8158844 (ACS Omega, 2021).
Marks after values point to notes of the source that are not given here.

Columns and labels:
[1] = Metabolic stability in rat liver S9 fraction; assay type: in vitro ADME; conditions: 30 min incubation in the presence of NADPH
[2] = Metabolic stability in porcine blood plasma; assay type: in vitro ADME; conditions: for metabolic stability porcine plasma (percent of parent remaining): Table 1, 30 min incubation, n = 3; for stability porcine blood plasma (percent of parent remaining): Table 3, 30 min, 37 °C, n = 3 unless otherwise stated
[3] = target: porcine albumin (Sus scrofa, UniProt P08835); assay: Stability in porcine albumin solution; assay type: in vitro ADME; conditions: porcine albumin 17.5 mg/mL in PBS; 30 min, 37 °C
porcine albumin, sequence (P08835 25-607): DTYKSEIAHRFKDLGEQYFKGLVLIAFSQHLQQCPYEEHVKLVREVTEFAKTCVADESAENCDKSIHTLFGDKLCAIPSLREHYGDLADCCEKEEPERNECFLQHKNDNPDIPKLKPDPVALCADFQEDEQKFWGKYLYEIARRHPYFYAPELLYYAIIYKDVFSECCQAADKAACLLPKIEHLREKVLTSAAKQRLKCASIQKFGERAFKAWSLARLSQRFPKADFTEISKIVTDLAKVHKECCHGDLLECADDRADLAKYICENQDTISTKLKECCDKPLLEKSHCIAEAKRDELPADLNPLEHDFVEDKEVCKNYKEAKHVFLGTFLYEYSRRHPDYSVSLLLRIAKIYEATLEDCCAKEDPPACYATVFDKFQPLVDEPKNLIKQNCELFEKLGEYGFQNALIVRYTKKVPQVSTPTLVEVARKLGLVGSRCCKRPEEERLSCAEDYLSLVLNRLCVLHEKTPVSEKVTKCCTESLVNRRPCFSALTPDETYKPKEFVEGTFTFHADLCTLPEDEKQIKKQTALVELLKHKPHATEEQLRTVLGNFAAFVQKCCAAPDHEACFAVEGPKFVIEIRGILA

[4] = Metabolic stability in porcine liver S9 fraction; assay type: in vitro ADME; conditions: 30 min; for stability porcine liver S9 fractions (percent of parent remaining): 37 °C, no NADPH added; for stability in the absence of BNNP (percent of parent remaining) / stability in the presence of BNNP (percent of parent remaining): porcine liver homogenate; for stability in the presence of BNNP (percent of parent remaining): carboxylesterase 1 inhibitor BNPP 1 mM
[5] = Chemical stability in aqueous solution; assay type: physicochemical; conditions: for stability in PBS buffer (percent of parent remaining): PBS buffer pH 7.4 with 0.2% Triton X-100, 60 min, 37 °C
[6] = target: T1, FAAH (Rattus norvegicus, UniProt P97612); assay: Inhibition of fatty acid amide hydrolase; assay type: biochemical
T1 sequence (P97612 1-579): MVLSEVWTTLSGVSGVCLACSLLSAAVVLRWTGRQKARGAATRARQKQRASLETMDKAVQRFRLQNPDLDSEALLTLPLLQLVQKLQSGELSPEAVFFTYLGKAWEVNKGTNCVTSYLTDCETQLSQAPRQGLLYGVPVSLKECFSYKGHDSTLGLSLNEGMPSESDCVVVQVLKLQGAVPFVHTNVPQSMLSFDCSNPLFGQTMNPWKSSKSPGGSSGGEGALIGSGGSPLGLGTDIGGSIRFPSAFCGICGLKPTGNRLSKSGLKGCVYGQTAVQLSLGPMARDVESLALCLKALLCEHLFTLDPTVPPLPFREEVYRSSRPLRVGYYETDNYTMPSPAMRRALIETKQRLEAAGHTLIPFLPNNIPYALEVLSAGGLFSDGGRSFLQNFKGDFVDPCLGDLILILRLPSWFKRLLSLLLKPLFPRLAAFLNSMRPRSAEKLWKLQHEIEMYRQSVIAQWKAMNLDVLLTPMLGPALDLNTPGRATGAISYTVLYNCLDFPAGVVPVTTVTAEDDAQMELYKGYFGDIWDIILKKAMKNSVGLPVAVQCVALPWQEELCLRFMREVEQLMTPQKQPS

[7] = target: T2, human recombinant MAGL (Homo sapiens, UniProt Q99685); assay: Inhibition of monoacylglycerol lipase; assay type: biochemical
T2 sequence (Q99685 1-303): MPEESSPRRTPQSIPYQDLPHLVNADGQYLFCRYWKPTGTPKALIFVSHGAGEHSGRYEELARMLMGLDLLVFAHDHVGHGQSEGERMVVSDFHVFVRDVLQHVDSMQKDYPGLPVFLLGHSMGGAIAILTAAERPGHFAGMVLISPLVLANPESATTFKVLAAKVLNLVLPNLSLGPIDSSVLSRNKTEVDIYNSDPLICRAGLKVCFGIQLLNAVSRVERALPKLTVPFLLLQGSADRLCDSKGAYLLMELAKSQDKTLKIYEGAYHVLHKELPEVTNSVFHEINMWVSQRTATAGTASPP

For O=C(OC(C(F)(F)F)C(F)(F)F)N1CCN(Cc2ccc(C(F)(F)F)cc2N2CCCC2)CC1 [ABX-1431 (2), reference compound], the “metabolic stability rat liver S9 fraction (percent of parent remaining)” value [1] was 92 ± 2%, the “metabolic stability porcine plasma (percent of parent remaining)” value [2] was 95 ± 2% and the “stability porcine blood plasma (percent of parent remaining)” value [2] was 95 ± 2%. For the same compound, the “stability porcine albumin solution (percent of parent remaining)” value [3] was 87 ± 6%, the “stability porcine liver S9 fractions (percent of parent remaining)” value [4] was 81 ± 3% and the “stability in PBS buffer (percent of parent remaining)” value [5] was 90 ± 5%.
With O=C(NCCCCn1ccc2ccc(F)cc21)Oc1ccccc1 [Compound 11] the IC50 [6] was 470 nM, the “metabolic stability rat liver S9 fraction (percent of parent remaining)” value [1] was 75 ± 6% and the “metabolic stability porcine plasma (percent of parent remaining)” value [2] was 74 ± 2%.
With O=C(NCCCCCn1ccc2ccc(F)cc21)Oc1ccccc1 [Compound 14, Phenyl N-[5-(6-Fluoroindol-1-yl)pentyl]carbamate] the IC50 [6] was 29 nM, the “metabolic stability rat liver S9 fraction (percent of parent remaining)” value [1] was 66 ± 8% and the “metabolic stability porcine plasma (percent of parent remaining)” value [2] was 80 ± 6%. For the same compound, the “stability porcine albumin solution (percent of parent remaining)” value [3] was 93 ± 6^n = 6%, the “stability in the absence of BNNP (percent of parent remaining)” value [4] was 76 ± 2% and the “stability in the presence of BNNP (percent of parent remaining)” value [4] was 87 ± 9%. The “stability in PBS buffer (percent of parent remaining)” value [5] was over 95%.
In the case of O=C(NCCCCCCn1ccc2ccc(F)cc21)Oc1ccccc1 [Compound 17], the IC50 [6] is reported as 85 nM, the “metabolic stability rat liver S9 fraction (percent of parent remaining)” value [1] is reported as 73 ± 2% and the “metabolic stability porcine plasma (percent of parent remaining)” value [2] is reported as 55 ± 2%.
In the case of O=C(NCCCCCCCn1ccc2ccc(F)cc21)Oc1ccccc1 [Compound 21], the IC50 [6] is reported as 84 nM, the “metabolic stability rat liver S9 fraction (percent of parent remaining)” value [1] is reported as 74 ± 11% and the “metabolic stability porcine plasma (percent of parent remaining)” value [2] is reported as 34 ± 5%.
In the case of O=C(NCCCCCCCCn1ccc2ccc(F)cc21)Oc1ccccc1 [Compound 25, Phenyl N-[8-(6-Fluoroindol-1-yl)octyl]carbamate], the IC50 [6] is reported as 130 nM, the “metabolic stability rat liver S9 fraction (percent of parent remaining)” value [1] is reported as 74 ± 5% and the “metabolic stability porcine plasma (percent of parent remaining)” value [2] is reported as 65 ± 2%.
For O=C(NCCCCCn1ccc2ccc(F)cc21)Oc1ccc(F)cc1 [Compound 26, 4-Fluorophenyl N-[5-(6-Fluoroindol-1-yl)pentyl]carbamate], the IC50 [6] was 49 nM, the “stability porcine blood plasma (percent of parent remaining)” value [2] was 59 ± 13^n = 6% and the “stability porcine albumin solution (percent of parent remaining)” value [3] was 91 ± 6^n = 5%. For the same compound, the “stability porcine liver S9 fractions (percent of parent remaining)” value [4] was 69 ± 4% and the “stability in PBS buffer (percent of parent remaining)” value [5] was over 95%.
In the case of N#Cc1ccc(OC(=O)NCCCCCn2ccc3ccc(F)cc32)cc1 [Compound 29, 4-Cyanophenyl N-[5-(6-Fluoroindol-1-yl)pentyl]carbamate], the “stability in PBS buffer (percent of parent remaining)” value [5] is reported as 12 ± 3% and the “cleavage in PBS buffer (pH 7.4) into the amine and 4-hydroxybenzonitrile” value ([5]; after 30 min at 37 °C, HPLC/MS) is reported as “nearly totally cleaved”.
With N#Cc1cccc(OC(=O)NCCCCCn2ccc3ccc(F)cc32)c1 [Compound 30] the IC50 [6] was 8 nM, the “stability porcine blood plasma (percent of parent remaining)” value [2] was under 5% and the IC50 [7] was 380 nM. For the same compound, the “stability porcine albumin solution (percent of parent remaining)” value [3] was under 5%, the “stability porcine liver S9 fractions (percent of parent remaining)” value [4] was 49 ± 4% and the “stability in PBS buffer (percent of parent remaining)” value [5] was 72 ± 3%.
For N#Cc1ccccc1OC(=O)NCCCCCn1ccc2ccc(F)cc21 [Compound 31], the “stability in PBS buffer (percent of parent remaining)” value [5] was 3 ± 2%.
For O=C(NCCCCCn1ccc2ccc(F)cc21)Oc1ccc(C(=O)O)cc1 [Compound 33, 4-({[5-(6-Fluoroindol-1-yl)pentyl]carbamoyl}oxy)benzoic Acid], the IC50 [6] was 12 nM, the “stability porcine blood plasma (percent of parent remaining)” value [2] was 37 ± 2% and the IC50 [7] was 3300 nM. For the same compound, the “stability porcine albumin solution (percent of parent remaining)” value [3] was 90 ± 9%, the “stability porcine liver S9 fractions (percent of parent remaining)” value [4] was 59 ± 6% and the “stability in the absence of BNNP (percent of parent remaining)” value [4] was 59 ± 6%. The “stability in the presence of BNNP (percent of parent remaining)” value [4] was 81 ± 8% and the “stability in PBS buffer (percent of parent remaining)” value [5] was over 95%.
With O=C(NCCCCCn1ccc2ccc(F)cc21)Oc1cccc(C(=O)O)c1 [Compound 35] the IC50 [6] was 18 nM, the “stability porcine blood plasma (percent of parent remaining)” value [2] was 78 ± 1% and the IC50 [7] was over 10000 nM. The inhibition at 10 µM ([7]; read-out: MAGL inhibition at 10 μM) was 31%, the “stability porcine albumin solution (percent of parent remaining)” value [3] was 93 ± 3% and the “stability porcine liver S9 fractions (percent of parent remaining)” value [4] was 74 ± 2%. The “stability in PBS buffer (percent of parent remaining)” value [5] was over 95%.
With O=C(NCCCCCn1ccc2ccc(F)cc21)Oc1ccccc1C(=O)O [Compound 37, 2-({[5-(6-Fluoroindol-1-yl)pentyl]carbamoyl}oxy)benzoic Acid] the IC50 [6] was 38 nM, the “stability porcine blood plasma (percent of parent remaining)” value [2] was 28 ± 4% and the IC50 [7] was 38 nM. For the same compound, the “factor by which MAGL activity exceeds reference inhibitor ABX-1431” value ([7]; ratio of MAGL IC50 values) was 15, the “stability porcine albumin solution (percent of parent remaining)” value [3] was 74 ± 2% and the “stability porcine liver S9 fractions (percent of parent remaining)” value [4] was 77 ± 3%. For the same compound, the “stability in PBS buffer (percent of parent remaining)” value [5] was 73 ± 6%.
With O=C(NCCCCCn1ccc2ccc(F)cc21)Oc1cccnc1 [Compound 44] the IC50 [6] was 2 nM, the “stability porcine blood plasma (percent of parent remaining)” value [2] was under 5% and the IC50 [7] was 170 nM. For the same compound, the “stability porcine albumin solution (percent of parent remaining)” value [3] was 27 ± 3%, the “stability porcine liver S9 fractions (percent of parent remaining)” value [4] was 53 ± 7% and the “stability in PBS buffer (percent of parent remaining)” value [5] was 60 ± 2%.
In the case of Cc1ncccc1OC(=O)NCCCCCn1ccc2ccc(F)cc21 [Compound 45], the IC50 [6] is reported as 10 nM, the “stability porcine blood plasma (percent of parent remaining)” value [2] is reported as 23 ± 6% and the IC50 [7] is reported as 140 nM. The “stability porcine albumin solution (percent of parent remaining)” value [3] was 70 ± 8%, the “stability porcine liver S9 fractions (percent of parent remaining)” value [4] was 65 ± 9% and the “stability in PBS buffer (percent of parent remaining)” value [5] was 75 ± 4%.
For Cc1ccc(OC(=O)NCCCCCn2ccc3ccc(F)cc32)cn1 [Compound 48], the IC50 [6] was 4 nM, the “stability porcine blood plasma (percent of parent remaining)” value [2] was under 5% and the IC50 [7] was 310 nM. For the same compound, the “stability porcine albumin solution (percent of parent remaining)” value [3] was 62 ± 4%, the “stability porcine liver S9 fractions (percent of parent remaining)” value [4] was 51 ± 9% and the “stability in PBS buffer (percent of parent remaining)” value [5] was 82 ± 6%.
In the case of O=C(NCCCCCn1ccc2ccc(F)cc21)Oc1cccc2[nH]ccc12 [Compound 49, Indol-4-yl N-[5-(6-Fluoroindol-1-yl)pentyl]carbamate], the IC50 [6] is reported as 180 nM, the “decrease in FAAH inhibitory activity compared with compound 14” value ([6]; ratio of FAAH IC50 values) is reported as “about 6 fold” and the “stability porcine blood plasma (percent of parent remaining)” value [2] is reported as 80 ± 3%. The “stability porcine albumin solution (percent of parent remaining)” value [3] was 81 ± 6%, the “stability porcine liver S9 fractions (percent of parent remaining)” value [4] was 78 ± 4% and the “stability in PBS buffer (percent of parent remaining)” value [5] was over 95%.
In the case of O=C(O)c1ccc(OC(=O)N2CCC(CCn3ccc4ccc(F)cc43)CC2)cc1 [Compound 54, 4-({4-[2-(6-Fluoroindol-1-yl)ethyl]piperidine-1-carbonyl}oxy)benzoic Acid], the IC50 [6] is reported as 15 nM, the “stability porcine blood plasma (percent of parent remaining)” value [2] is reported as 94 ± 3% and the “stability porcine albumin solution (percent of parent remaining)” value [3] is reported as 93 ± 8%. The “stability porcine liver S9 fractions (percent of parent remaining)” value [4] was 66 ± 9% and the “stability in PBS buffer (percent of parent remaining)” value [5] was over 95%.
In the case of O=C(O)c1cccc(OC(=O)N2CCC(CCn3ccc4ccc(F)cc43)CC2)c1 [Compound 56], the IC50 [6] is reported as 27 nM, the “stability porcine blood plasma (percent of parent remaining)” value [2] is reported as over 95% and the “stability porcine albumin solution (percent of parent remaining)” value [3] is reported as 94 ± 3%. For the same compound, the “stability porcine liver S9 fractions (percent of parent remaining)” value [4] was 72 ± 7% and the “stability in PBS buffer (percent of parent remaining)” value [5] was over 95%.
In the case of O=C(O)c1ccccc1OC(=O)N1CCC(CCn2ccc3ccc(F)cc32)CC1 [Compound 58], the IC50 [6] is reported as 3500 nM, the “stability porcine blood plasma (percent of parent remaining)” value [2] is reported as over 95% and the “stability porcine albumin solution (percent of parent remaining)” value [3] is reported as 89 ± 6%. The “stability porcine liver S9 fractions (percent of parent remaining)” value [4] was 72 ± 6% and the “stability in PBS buffer (percent of parent remaining)” value [5] was over 95%.
In the case of CCOC(=O)C1=C[C@@H](OC(CC)CC)[C@H](NC(C)=O)[C@@H](N)C1 [oseltamivir, reference compound], the “stability in the absence of BNNP (percent of parent remaining)” value [4] is reported as 11 ± 2% and the “stability in the presence of BNNP (percent of parent remaining)” value [4] is reported as 97 ± 1%.
With CNC(=O)Oc1ccc2c(c1)[C@]1(C)CCN(C)[C@@H]1N2C [physostigmine, reference compound] the “metabolic stability rat liver S9 fraction (percent of parent remaining)” value [1] was 76 ± 7%, the “metabolic stability porcine plasma (percent of parent remaining)” value [2] was over 95% and the “stability porcine blood plasma (percent of parent remaining)” value [2] was over 95%. For the same compound, the “stability porcine albumin solution (percent of parent remaining)” value [3] was over 95%, the “stability porcine liver S9 fractions (percent of parent remaining)” value [4] was 57 ± 4% and the “stability in PBS buffer (percent of parent remaining)” value [5] was over 95%.
